Data published in patent US4618598A, “Method of regulating hormone function or release” (Duke University, priority 1982, dated 1986).

Columns and labels:
[1] = target: T1, gonadotropin releasing hormone receptor (Rattus norvegicus, UniProt P30969); experiment: Competitive binding against [125-I] Buserelin on pituitary plasma membrane fraction
T1 construct: gonadotropin releasing hormone sites on a plasma membrane fraction from the rat pituitary; from tissue; host or cells: rat pituitary plasma membrane fraction
T1 sequence (P30969 1-327): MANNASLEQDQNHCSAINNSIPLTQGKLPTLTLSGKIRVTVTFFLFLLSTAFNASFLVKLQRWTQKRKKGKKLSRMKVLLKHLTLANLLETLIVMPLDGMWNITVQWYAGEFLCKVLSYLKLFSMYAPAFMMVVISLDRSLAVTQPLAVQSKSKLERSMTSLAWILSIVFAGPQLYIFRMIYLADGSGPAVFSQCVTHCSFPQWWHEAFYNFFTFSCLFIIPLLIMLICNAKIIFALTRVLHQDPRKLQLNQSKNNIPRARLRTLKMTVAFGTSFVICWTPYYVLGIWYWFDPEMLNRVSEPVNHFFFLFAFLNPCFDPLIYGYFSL
Text: [125-I]-Tyr^5 -D-ser(tert-butyl)^6 -desGly^10 -Pro^9 ethylamid-GnRH ([125-I] Buserelin, Hoechst Pharmaceuticals) binds to the gonadotropin releasing hormone receptor sites on the plasma membrane. The ability to compete with the iodine labelled Buserelin indicates the relative affinity for the receptor. […] The data are expressed in terms of equivalents of releasing hormone analogue showing the radioligand bound in the presence of the indicated analogue concentration (B) compared to that bound in the absence of added analog (Bo).
The binding assay was conducted in polypropylene microfuge tubes which were precoated overnight with 1% BSA. The assay contained approximately 20,000 cpm of ^125 I-labeled Buserelin and 30 μg of membrane protein, in the presence or absence of 10^-5 M GnRH. In some competition experiments, the amount of added GnRH was altered as indicated. To determine the specificity of binding, des-pGlu^1 -GnRH (Bachem, Torrance, Calif.), D-Ala^6 -GnRH (Peninsula Laboratories, Inc., San Carlos, Calif.), D-Phe^2 -D-Ala^6 -GnRH (Wyeth Laboratories, Philadelphia, Pa.) TRH (Peninsula Laboratories), arg^8 -vasopressin (Calbiochem, San Diego, Calif.), or somatostatin (Beckman Instruments, Fullerton, Calif.) were added at the indicated concentrations. The final assay volume was 500 μl adjusted with 10 mM Tris-0.1% BSA. Following a 2-hr incubation on ice, bound and free hormone were separated by centrifugation. (Eppendorf microfuge, 12,800×g, 5 min) through 100 μl of 10% (w/v) sucrose. The tips of the tubes were cut off and radioactivity was determined by γ-spectroscopy. […] For some kinetic studies, bound hormone and free hormone were separated by the method of rapid filtration. Incubations were performed in triplicate. Specific binding was determined by subtracting nonspecific binding (in the presence of excess unlabeled GnRH) from total binding (no GnRH). Scatchard analysis of the binding data, using linear regression analysis to establish best-line fit, was used to determine the number and binding affinity of GnRH receptors. […]

pituitary cell cultures [2] = details: for effect on conjugate-stimulated LH release: Example 4, 2 mM EGTA (1.25 mM extracellular calcium), five micromolar Pimozide; for effect on LH release stimulated by dimer plus antibody: Example 7, 5 μM Pimozide or 2 mM EGTA, all titers, 1.5×10^-11 M dimer
Procedure: (§1) Luteinizing hormone release from pituitary cell cultures is dependent upon the binding of the gonadotropin releasing hormone to its specific cell surface receptor. […] In FIG. 2 the antagonist activity of GnRH-Ant was measured in a cell culture bioassay. Two day pituitary cell cultures were incubated with 10^-8 M, 10^-9 M, or no GnRH at the indicated concentration of antagonist. After the 5 h incubation period, the medium was assayed for LH by RIA using rat LH antisera (LHS-4), highly purified rat LH for labeling (LH I-4), and rat LH standard (LH-RP-1) which were made available by a grant from the NIAMDD Hormone Distribution Office (prepared by Dr. A. Parlow, Torrance, CA.). The assay was performed as described below, except that second antibody was used to separate the bound and free [^ 125 -I]-LH.
Cell cultures were prepared, by collagenase-hyaluronidase dispersion of pituitaries from 25-day-old female weanling rats. The cultures were then incubated for 2 days at 37 C. in culture plates. […] After the culture period, the cells were washed free of debris and sera with medium 199 containing 0.3% bovine serum albumin (Cohn fraction V; 199/BSA) and incubated with the indicated compounds. Medium 199 normally contains 1 mM Ca^2+. Cells were incubated in 1.0 ml medium for 3 h. After the incubation period, the supernatant fraction was removed from the cells (attached to the culture dish) with a Pasteur pipette and assayed for LH by RIA employing rat LH antisera (LHS-5), highly purified rat LH for labeling (LH-I-6), and rat LH standard (LH-RP-1), all of which were made available by the NIAMMD Hormone Distribution Office and were prepared by Dr. A. Parlow (Torrance, CA). The assay was performed, using immobile protein A to separate the bound and free [^125 I]LH. […] LH release was normalized by DNA determination in order to correct for slight differences in cell numbers in different assay wells.
Rabbit anti-D-Lys^6 -GnRH (antiserum No. 5111 prepared by immunization with D-Lys^6 coupled to bovine serum albumin (BSA) with glutaraldehyde) was added without additional purification in an amount sufficient to bind 8-10% of the dimer. The antibody was added in a final volume of 50 μl (with Medium 199 containing 0.3% BSA and 2 mg NaN3). The reaction ws allowed to proceed 10 h at room temperature and then 2 days at 10° C. Immediately before the cell bioassay, the solution was applied to a 12 ml calibrated G-75 column (10×260 mm) equilibrated in 199/BSA. Twenty drop fractions (about 300 μl) were collected and brought to 1.0 ml with 199/BSA. […] Where monovalent antibody is specified, the reduced pepsin fragment of antibody (No. 5111) was substituted for intact antibody in the conjugation described above. In this case ammonium sulfate fractionated IgG was dissolved in 50 mM acetate buffer, pH 4.5 and digested with pepsin (Worthington Biochemical Corp.) at an enzyme:substrate ratio of 1:100 for 50 min at […]. Digestion was stopped by neutralization with 1M Tris-HCL, pH 8.0 and 0.1N NaOH. Precipitated material was removed by centrifugation and 2-mercaptoethanol added to the supernatant at a final concentration of 0.75 mM. The solution was maintained at room temperature for 1 h, then cooled in ice cold water.

pituitary cell cultures [3] = experiment: Inhibition of GnRH-stimulated LH release from pituitary cell cultures (antagonist function); assay type: cell-based, rat
Procedure: as §1, with “FIG. 2 illustrates the ability of the gonadotropin releasing hormone antagonist to inhibit gonadotropin releasing hormone-stimulated LH release from pituitary cell cultures. Luteinizing” for “Luteinizing”, “receptor. The GnRH-antagonist binds to this receptor and blocks stimulation by GnRH.” for “receptor.”
Cell cultures were prepared, by collagenase-hyaluronidase dispersion of pituitaries from 25-day-old female weanling rats. The cultures were then incubated for 2 days at 37 C. in culture plates. […]

## CCNC(=O)[C@@H]1CCCN1C(=O)[C@H](CCCNC(=N)N)NC(=O)[C@H](CC(C)C)NC(=O)[C@@H](COC(C)(C)C)NC(=O)[C@H](Cc1ccc(O)cc1)NC(=O)[C@H](CO)NC(=O)[C@H](Cc1c[nH]c2ccccc12)NC(=O)[C@H](Cc1cnc[nH]1)NC(=O)[C@@H]1CCC(=O)N1 [Buserelin]
[1]
  IC50: ~0.1 nM

## O=c1[nH]c2ccccc2n1C1CCN(CCCC(c2ccc(F)cc2)c2ccc(F)cc2)CC1 [Pimozide]
Pituitary cell cultures [2]
  effect on conjugate-stimulated LH release: blocked
  effect on LH release stimulated by dimer plus antibody: diminished LH release to near basal

## D-pyroglumatic acid-D-phenylalanyl-D-tryptophanyl-D-lysyl-GnRH [GnRH-antagonist]
[1]
  binding affinity compared with natural GnRH: higher affinity than natural sequence releasing hormone
[1]; printed as less affinity than natural GnRH, in equivalents of monomeric hormone
  binding affinity relative to natural sequence gonadotropin releasing hormone: about 50 fold
Pituitary cell cultures [3]
  antagonist action on GnRH-stimulated LH release: blocks the action of both 10^-8 molar and 10^-9 molar GnRH
Pituitary cell cultures [3]; GnRH-stimulated (10^-9 molar), pituitary cultures, read-out: 50% inhibitory concentration (IC50) of GnRH-stimulated gonadotropin release
  IC50: 0.2 nM

## CC(C)C[C@H](NC(=O)[C@@H](CCCCNC(=O)CCC(=O)OCCOC(=O)CCC(=O)NCCCC[C@@H](NC(=O)[C@H](Cc1ccc(O)cc1)NC(=O)[C@H](CO)NC(=O)[C@H](Cc1c[nH]c2ccccc12)NC(=O)[C@H](Cc1c[nH]cn1)NC(=O)[C@@H]1CCC(=O)N1)C(=O)N[C@@H](CC(C)C)C(=O)N[C@@H](CCCNC(=N)N)C(=O)N1CCC[C@H]1C(=O)NCC(N)=O)NC(=O)[C@H](Cc1ccc(O)cc1)NC(=O)[C@H](CO)NC(=O)[C@H](Cc1c[nH]c2ccccc12)NC(=O)[C@H](Cc1c[nH]cn1)NC(=O)[C@@H]1CCC(=O)N1)C(=O)N[C@@H](CCCNC(=N)N)C(=O)N1CCC[C@H]1C(=O)NCC(N)=O [(D-Lys^6 -GnRH)2 -EGS dimer]
Pituitary cell cultures [2]
  ED50 of LH release: 0.8 nM

## O=C(O)CN(CCOCCOCCN(CC(=O)O)CC(=O)O)CC(=O)O [EGTA]
Pituitary cell cultures [2]
  effect on conjugate-stimulated LH release: blocked
  effect on LH release stimulated by dimer plus antibody: diminished LH release to near basal

## CC(C)C[C@H](NC(=O)[C@@H](CCCCN)NC(=O)[C@H](Cc1ccc(O)cc1)NC(=O)[C@H](CO)NC(=O)[C@H](Cc1c[nH]c2ccccc12)NC(=O)[C@H](Cc1c[nH]cn1)NC(=O)[C@@H]1CCC(=O)N1)C(=O)N[C@@H](CCCNC(=N)N)C(=O)N1CCC[C@H]1C(=O)NCC(N)=O [D-Lys^6 -GnRH, pyro glutamic acid-histidine-tryptophan-serine-tyrosine-D-lysine-leucine-arginine-proline-glycine-NH2]
Pituitary cell cultures [2]; Example 7, 10^-7 M
  stimulated LH release: 58±6 ng/100 ng DNA

## GnRH: natural sequence gonadotropin releasing hormone (QHWSYGLRPG; Gonadoliberin-1; UniProt P01148 24-33, looked up)
Pituitary cell cultures [2]; Example 4, 10^-7 moles GnRH, five hour period
  LH release in response to GnRH: 13.6±0.9 ng LH/20 μL of medium
Pituitary cell cultures [2]; FIG. 6
  concentration at which maximum LH release is reached: 10^-7 molar
